Data on one molecule can be found in patent publication US12285434B2, “Therapeutic, preventive, or improvement agent for inflammatory disease and allergic disease” (The University of Tokyo, priority 2018, dated 2025).

Structures are written as SMILES.

The test system of test [1] is calcium ion concentration in HUVECs. Kind of test: Histamine-induced increase of calcium ion concentration (fura-2). The class given is cell-based, human. The conditions noted are these: histamine 10 μM. The method, then: These cells (passages 4 to 9) were used for experiments after 4-hour starvation in EBM-2 (manufactured by Lonza K.K.) containing 2% FBS.
HUVECs were incubated with a calcium fluorescence indicator (3 μg fura-2/AM containing 0.11% Cremophor EL) for 30 minutes and washed with an HEPES buffer three times. […] Then, 5 minutes after the addition of each reagent, histamine was added so as to attain 10 μM. In addition, a group to which histamine was added so as to attain 10 μM without pretreatment was also prepared. A cover slip was placed in a specialized airtight chamber mounted onto the stage of a microscope maintained at 37° C. The HUVECs were excited at 340 nm and 380 nm and the emitted fluorescence signal was measured every 3 seconds at 510 nm for 60 seconds. The fluorescence ratio (R:F340/F380) was determined using a fluorescence imaging system (AQUACOSMOS, manufactured by Hamamatsu Photonics K.K.). After the experiment, 1 μM ionomycin was added and the fluorescence changes were measured in the presence of 0 or 1.5 mM calcium ions. The calcium ion concentration was indicated as A fluorescence ratio. AUC was calculated 1 minute after each stimulus to evaluate the A fluorescence ratio. It is known that the increase of calcium ion concentration in endothelial cells promotes NO production by eNOS phosphorylation and […] smooth muscle cells (Garcia-Cardena, G. et al., Nature, 392: 821-824(1998); and Luo, Z. et al., The Journal of clinical investigation, 106: 493-499(2000)).

For a further test, the system named is mouse aortae. Kind of test: Measurement of vascular contraction of aorta (aortic ring specimens). The method, then:
After excision of the thoracic aortae from untreated mice and removal of fat and connective tissue, the aortae were cut into rings to prepare aortic ring specimens. The ring specimens were immersed in a liquid tank filled with a normal nutrient solution (physiological saline solution containing 136.9 mM NaCl, 5.4 mM KCl, 5.5 mM glucose, 23.8 mM NaHCO3, 1.5 mM CaCl2, 1.0 mM MgCl2 and 0.01 mM EDTA), and two stainless hooks were penetrated through the lumens of the ring specimens. One end of each of the stainless hooks was fixed, and the other end thereof was connected to a force-displacement transducer (T7-30-240, manufactured by Orientec Co., Ltd.) connected to a strain amplifier (3134 strain AMPL, manufactured by Yokogawa Test & Measurement Corporation). Then, the following operation (a), (b) or (c) was performed.
(a) Norepinephrine (manufactured by Sigma) was cumulatively added into the liquid tank containing the ring specimens after stabilization of each contraction (every about 30 minutes) so as to attain 0.001 μM, 0.01 μM, 0.1 μM and 1 μM, and this group was designated as a “norepinephrine-administered group” (n=4) (FIG. 3A). 5,6-DiHETE was cumulatively added into the liquid tank containing the ring specimen after stabilization of each contraction (every about 30 minutes) so as to attain 0.001 μM, 0.01 μM, 0.1 μM and 1 μM, and this group was designated as a “5,6-DiHETE-administered group” (n=4) (FIG. 3A).
(b) Norepinephrine was added into the liquid tank containing the ring specimens so as to attain 0.3 μM, and precontraction was induced by administration of norepinephrine (FIG. 3B). Then, after the contraction by the administration of norepinephrine was stabilized, acetylcholine (manufactured by Sigma) was cumulatively added after stabilization of each relaxation reaction (every about 15 minutes) so as to attain 0.03 μM, 0.1 μM, 0.3 μM and 1 μM, and this group was designated as an “acetylcholine-administered group” (FIG. 3B). After the contraction by the administration of norepinephrine was stabilized, 5,6-DiHETE was cumulatively added every about 15 minutes so as to attain 0.001 μM, 0.01 μM, 0.1 μM and 1 μM, and this group was designated as a “5,6-DiHETE-administered group” (n=4) (FIG. 3B).
(c) In order to verify the effect of 5,6-DiHETE on the acetylcholine administration, norepinephrine was added into the liquid tank containing the ring specimens so as to attain 1 μM. After the contraction by the administration of norepinephrine was stabilized, 5,6-DiHETE or a vehicle (solvent alone) was added so as to attain 1 μM. […]
In the above operations (a) to (c), tension (contractile force) generated in the aortic ring specimens was measured isometrically over time using the above force-displacement transducer under a resting tension of 3 mN, and recorded.

For the next test, the system named is HUVECs. Kind of test: Endothelial barrier function: transendothelial electrical resistance (TER). In kind it is cell-based, human. The method, then:
In Examples 4 to 6, human umbilical vein endothelial cells (hereinafter, sometimes referred to as “HUVECs”, manufactured by Lonza) were cultured in EGM-2 (manufactured by Lonza K.K.). These cells (passages 4 to 9) were used for experiments after 4-hour starvation in EBM-2 (manufactured by Lonza K.K.) containing 2% FBS.
The in vitro endothelial barrier function was evaluated by measuring the transendothelial electrical resistance (hereinafter, sometimes referred to as “TER”) of the HUVECs prepared in the above item (1) over time. Specifically, the transendothelial electrical resistance was measured using an xCELLigence Real-Time Cell Analyzer DP system (manufactured by Roche). The system monitors changes in TER across an interdigitated microelectrode at the bottom of tissue culture E-plates (manufactured by Roche). The HUVECs (8,000 cells) were plated on the E-plates and incubated until confluent. Then, the following operation (a) or (b) was performed.
(a) Each reagent was added to plates on which the HUVECs were cultured, so as to give a vehicle, 1 U/mL thrombin, 1 μM forskolin, or 0.1 μM or 0.3 μM 5,6-DiHETE (FIGS. 4A and 4B).
(b) A vehicle or […] was added to plates on which the HUVECs were cultured, so as to attain 10 μM. […] Thirty (30) minutes after the addition, 10 μM histamine was added to each plate 30 minutes after the addition (FIGS. 4C and 4D).
In the above operations (a) and (b), the TER was measured every 60 seconds. For normalization, the cell index value at each time point is shown as a ratio relative to the initial value. The maximum normalized cell index after stimulation was quantified and represented as maximal response. Note that it is known that the disruption of the endothelial barrier function lowers the TER, but that the enhancement of the endothelial barrier function increases the TER.

For `CC/C=C\C/C=C\C/C=C\C/C=C\C[C@@H](O)[C@@H](O)CCCC(=O)O` (racemic) [5,6-DiHETE, (±) 5,6-dihydroxy-8Z,11Z,14Z,17Z-eicosatetraenoic acid], the “calcium ion concentration, AUC at 1 minute after stimulation” value in test [1] (pretreatment 0.03 μM) stood at 7.8±2.3; in test [1] (pretreatment 0.1 μM) it was 5.9±1.5; in test [1] (pretreatment 0.3 μM), 1.8±1.1. Also, the “acetylcholine-induced aortic relaxation vs vehicle-administered group” value in the test with mouse aortae (1 μM pretreatment, precontraction 1 μM norepinephrine, acetylcholine 0.03-1 μM) is recorded as “significantly attenuated”. The contraction of aorta entry with mouse aortae (cumulative addition 0.001, 0.01, 0.1 and 1 μM) was “no contraction was caused”. Moreover, the “effect on aorta precontracted by norepinephrine” value in the test with mouse aortae (precontraction 0.3 μM norepinephrine, cumulative 0.001, 0.01, 0.1 and 1 μM) is on record as “did not affect the precontraction by norepinephrine”. In the test with HUVECs (0.1 μM and 0.3 μM, alone), the “change of TER” value is “did not change the TER”. The “TER, minimum (normalized cell index)” value in the test with HUVECs (pretreatment 0.3 μM, 15 minutes, before histamine 10 μM) was 0.915±0.012 fold.
